Columns and labels:
[1] = tested on: PA smooth muscle cell contraction in the lungs from new born rats (U46619 vasoconstriction); assay: Non-specific inhibition test: U46619 vasoconstriction response in isolated perfused lungs; parameters: species or system Sprague-Dawley rats; conditions: U46619 5 ng/mL
Protocol: (§1) Isolated perfused lung preparation prepared from newborn rats. Male or female newborn (less than 48 hours old) Sprague-Dawley rats are anesthetized with pentobarbital sodium (0.65 mg/kg; ip), and heparin (1000 U/kg) is administered intravenously. Lungs are isolated as follows. Briefly, the lungs and the heart are remove en block and the pulmonary artery (PA) and left atrium are cannulated and perfused with a buffered salt solution (BSS) (NaCl (117 mM), KCl (4 mM), NaHCO3 (18 mM), MgSO4 (0.76 mM), NaHPO4′H2O (1 mM), CaCl2 (1.21 mM), and glucose (1 g/L)) containing bovine serum albumin (0.5% w/v) and indomethacin (10 mg/L). After flushing the pulmonary circulation with perfusate (100-200 mL), the lungs are perfused from a recirculating system (35 mL) at 8 mL/min. Perfusate is maintained at […], pH 7.4, and bubbled with 5% O2, 5% CO2, and 90% N2. Left atrial pressure is maintained at 1 cm H2O2 by elevating the venous outflow cannula. The lungs are ventilated with a small animal respirator using a humidified gas mixture of 21% O2, 5% CO2, and 74% N2 (normoxia) at a rate of 54 breaths/in, a tidal volume of 2-3 mL and an end-expiratory pressure of 3 cm H2O2. Left atrial and PA pressures are continuously recorded on a multichannel strip chart recorder (Grass Instruments, Quincy, Mass.).
Hypoxia-induced changes in pulmonary vascular impedance are represented as the change in PA pressure observed during hypoxic ventilation under constant flow conditions, compared with normoxia, in cm H2O. Two hypoxic challenges are performed and averaged to define the baseline response prior to the experimental intervention, thus allowing each lung to act as its own control. The experimental agents then are added to the reservoir and allowed to recirculate for 5-10 minutes, after which two more hypoxic challenges are administered and averaged to evaluate the effects of the intervention. In the continued presence of the experimental agents, the stable thromboxane A2 analog, U46619 (5 ng/mL) is then added to the reservoir to determine the effect on the ability to respond to a receptor-mediated vasoconstricting agonist. This provided a measure of the specificity of the intervention for the response to hypoxia.
Non-specific inhibition of PA smooth muscle cell contraction in the lungs from new born rats. To determine whether the pharmacological agents that inhibited the HPV response in our study might also affect the response a receptor-mediated vasoconstrictor, studies are carried out using the stable Thromboxane A2 analog, U46619 (5 ng/mL). Experiments are performed to assess the U46619 response before and after the addition of the experimental agents. Briefly, lungs are subjected to a challenge of U46619 and the change in PA pressure is measured. The vasculature is then washed out with fresh perfusate until the PA pressure returned to baseline (approximately 10 minutes elapsed time), after which the experimental agents are administered to the reservoir. After 10 minutes, a second dose of U46619 is added to the reservoir and the change in PA pressure is measured. Only Rotenone blunted the U46619 vasoconstriction at 5 μg/mL. Myxothiazol (50 μg/mL), cyanide (10 μM), ebselen (50 μM), and DDC (1 μM) had no effect on the U46619 vasoconstriction response. DPI (10 μM), rotenone (50 ng/mL), antimycin A (1 ng/mL), PDTC (10 μM), and DIDS (200 μM) augmented the U46619 vasoconstriction response.

[2] = tested on: PA myocytes; conditions: 10 μM
Protocol: To confirm that the loss of DCF fluorescence upon reoxygenation is not due to cell death subsequent to the opening of the mitochondrial permeability transition pore, additional studies are carried out using tetraethyrhodamine methyl ester (TMRE) to assess mitochondrial membrane potential (ΔΨm). This cationic dye equilibrates across the mitochondrial inner membrane in accordance with the AΔΨm, and changes in endothelia fluorescence at these non-quenching concentrations can be used to detect changes in mitochondrial polarization. PA myocytes on collagen-coated cover slips are loaded with TMRE (100 nM) for 45 minutes at 37° C. The cells are then placed in a flow-through chamber on an inverted microscope and perfused with M199 media without serum containing TMRE (10 nM). Fluorescence images are obtained under baseline normoxic conditions (16% O2/5% CO2) until a stable baseline is established. The PO2 of the media is then lowered for 30 mm (1% O2/5% CO2), after which it is restored to normoxia for 30 minutes.

[3] = tested on: isolated lungs from the newborn rats; assay: HPV responses in isolated lungs: PA pressure after agonist; parameters: species or system Sprague-Dawley rats; conditions: 10 nM in recirculating perfusate
Protocol: as §1
HPV responses in isolated lungs from the newborn rats. […]

[4] = tested on: PA endothelia myocytes; assay: DCFH oxidation (ROS probe) sensitivity check; format: cell-based, rat
Protocol: Pulmonary microvessel endothelia isolation and measurement of reactive oxygen species (ROS). ROS generation in pulmonary endothelia and myocytes is assessed using the probe 2′,7′-dichlorofluorescin diacetate (DCFH-DA, 5 μM Molecular Probes), which is continuously present in the perfusate. The diacetate form enters the cells where esterases cleave the acetate group, tending to trap the nonfluorescent 2′,7′-dichlorofluorescin (DCFH) intracellularly. In the presence of H2O2, this probe is oxidized to 2′,7′-dichlorofluorescein (DCF), which is quantified using fluorescence imaging (excitation: 488 nm, emission: 535 nm) in a system equipped with a 12 bit digital camera. Intensity values are reported as percent of initial values, after subtracting background (METAMORPHIC, Universal Imaging, Inc.).
To confirm that the DCFH dye is sensitive to oxidation by H2O2, additional studies are carried out in PA endothelia myocytes superfused with normoxic (16% O2) media in the presence of DCFH-DA (5 μM). […] When the H2O2-containing media is replaced with fresh media containing DCFH without H2O2, intracellular fluorescence decreased toward baseline values. These findings confirm that DCFH oxidation is sensitive to H2O2, and that oxidized DCF can leak out of viable cells and explain the decrease in fluorescence seen at reoxygenation.

[5] = tested on: PA myocytes; assay: SYTOX Green membrane permeability check; format: cell-based, rat; conditions: 300 μM, plasma membrane disruption
Protocol: Pulmonary microvessel myocyte isolation from the isolated lungs from the newborn rats. Myocytes are isolated using a modification of the method of Marshall et al. (______ (1999). Freshly excised rat heart and lungs are rinsed with phosphate-buffered saline (PBS) containing penicillin and streptomycin (1%). The right ventricle is cannulated and the pulmonary vasculature is flushed with the PBS (30 mL). Using the PA cannula, M199 growth media (30 mL) containing HEPES (25 mM), and penicillin and streptomycin (1%) plus low melting point agarose (0.5%) and iron particles (0.5%), is flushed through the pulmonary vasculature. Because the iron particles are too large to pass through the capillaries, only the arteries contained iron particles. The airways are filled via the trachea with M199 (15 mL) containing low melting point agarose (1%) without iron. The lungs are plunged into cold PBS to cause the agarose to gel. After 10 minutes, the lobes are dissected free and finely minced in a petri dish. […]
In steady state, increases in fluorescence occur when the rate of intracellular oxidation of the dye is accelerated. […] To confirm that the decrease in DCF fluorescence seen upon reoxygenation is not due to a loss of plasma membrane integrity, additional studies are carried out using SYTOX Green dye (100 nM) to detect changes in membrane permeability. […]

[6] = aqueous solutions; cited from earlier work
[7] = tested on: degradation of IκB-β / NF-κB; conditions: in vivo and experimental lung transplant preservation media; cited from earlier work

Question: With `CCN(CC)C(=S)S` [DDC, diethyldithiocarbamate] as the molecule, how does the “effect on U46619 vasoconstriction response” value (shortened to “effect”) ([1]; 1 μM) read?
Answer: The value was “no effect”.

Question: With `N#CC(C#N)=NNc1ccc(OC(F)(F)F)cc1` [FCCP, carbonyl cyanide p-trifluoromethoxyphenylhydrazone] as the molecule, how does the “TMRE fluorescence (ΔΨm)” value [2] read?
Answer: Its value is “rapid, significant decrease in fluorescence”.

Question: Which “increase of PA pressure” value [3] does the source give for Angiotensin II here?
Answer: The value was roughly 2 cm H2O.

Question: Which “intracellular DCF fluorescence” value [4] does the source give for `OO` [H2O2] here?
Answer: The value was “increased significantly and progressively”.

Question: With `CO/C(=C/C(N)=O)[C@H](C)[C@H](/C=C/c1csc(-c2csc([C@@H](C)/C=C/C=C/C(C)C)n2)n1)OC` [Myxothiazol, myxothiazol] as the molecule, how does the “effect” value ([1]; 50 μg/mL) read?
Answer: Its value is “no effect”.

Question: With `C[C@@H]1CC[C@@]2(OC1)O[C@H]1[C@@H](O)[C@H]3[C@@H]4CC[C@H]5C[C@@H](O[C@@H]6O[C@H](CO)[C@H](O[C@@H]7O[C@H](CO)[C@@H](O)[C@H](O[C@@H]8OC[C@@H](O)[C@H](O)[C@H]8O)[C@H]7O[C@@H]7O[C@H](CO)[C@H](O)[C@H](O[C@@H]8O[C@H](CO)[C@@H](O)[C@H](O)[C@H]8O)[C@H]7O)[C@H](O)[C@H]6O)[C@H](O)C[C@]5(C)[C@H]4CC[C@]3(C)[C@H]1[C@@H]2C` [digitonin] as the molecule, how does the “nuclear staining with SYTOX Green” value [5] read?
Answer: The value was “all cells demonstrated nuclear staining”.

Question: What does the source list for `S=C(S)N1CCCC1` [PDTC, pyrrolidine dithiocarbamate]?
Answer: solubility [6]: poorly soluble; pulmonary mean arterial pressure (MAP), edema, and cellular infiltration [7]: reduced; pulmonary oxygenation [7]: improved significantly; effect on U46619 vasoconstriction response ([1]; 10 μM): augmented

Question: Which solubility [6] does the source give for `COC1=C(OC)C(=O)C(C/C=C(\C)CC/C=C(\C)CC/C=C(\C)CC/C=C(\C)CC/C=C(\C)CC/C=C(\C)CC/C=C(\C)CC/C=C(\C)CC/C=C(\C)CCC=C(C)C)=C(C)C1=O` [CoQ10, 2,3-dimethoxy-5-methyl-6-decaprenyl-1,4-benzoquinone] here?
Answer: Its solubility is “only lipid soluble”.

Question: Which “effect” value ([1]; 10 μM) does the source give for `c1ccc2c(c1)[I+]c1ccccc1-2` [DPI, diphenyleneiodonium] here?
Answer: The value was “augmented”.

Question: Which results are given for `C=C(C)[C@H]1Cc2c(ccc3c2O[C@@H]2COc4cc(OC)c(OC)cc4[C@@H]2C3=O)O1` [rotenone]?
Answer: effect on U46619 vasoconstriction response ([1]; 50 ng/mL): augmented; effect on U46619 vasoconstriction response ([1]; 5 μg/mL, isolated perfused newborn rat lung): blunted

Question: For `O=S(=O)(O)c1cc(N=C=S)ccc1C=Cc1ccc(N=C=S)cc1S(=O)(=O)O` [DIDS, 4,4′-diisothiocyanatostilbene-2,2′-disulphonic acid], which “effect” value ([1]; 200 μM) is on record?
Answer: Its value is “augmented”.

Question: Which “effect” value ([1]; 1 ng/mL) does the source give for antimycin A here?
Answer: The value was “augmented”.

Question: Which “effect” value ([1]; 50 μM) does the source give for `O=c1c2ccccc2[se]n1-c1ccccc1` [ebselen] here?
Answer: Its value is “no effect”.

B1: recombinant human IκB-α: recombinant human IκB-α which can maintain the inhibitory effect on NF-κB (protein, UniProt P25963 1-317, looked up)
NF-kappa-B inhibitor alpha: MFQAAERPQEWAMEGPRDGLKKERLLDDRHDSGLDSMKDEEYEQMVKELQEIRLEPQEVPRGSEPWKQQLTEDGDSFLHLAIIHEEKALTMEVIRQVKGDLAFLNFQNNLQQTPLHLAVITNQPEIAEALLGAGCDPELRDFRGNTPLHLACEQGCLASVGVLTQSCTTPHLHSILKATNYNGHTCLHLASIHGYLGIVELLVSLGADVNAQEPCNGRTALHLAVDLQNPDLVSLLLKCGADVNRVTYQGYSPYQLTWGRPSTRIQQQLGQLTLENLQMLPESEDEESYDTESEFTEFTEDELPYDDCVFGGQRLTL
Question: For B1, which solubility [6] is on record?
Answer: Its solubility is “poorly soluble”.

From patent US20030170223A1, “Pulmonary vasodilator surfactant compositions and method of use” (Board of Trustees of Michigan State University, priority 2002, published 2003)
